Measurements published in US5300298A, “Methods of treating obesity with purine related compounds” (The Pennsylvania Research Corporation, priority 1992, dated 1994).

Columns and labels:
[1] = tested on: lean and obese Zucker rats; experiment: Glucose tolerance test after seven days of BW1433 administration; type: in vivo
Method: FIG. 3: Glucose tolerance test after seven days of BW1433 administration. Animals were fasted overnight before injection of 1.25 g/Kg glucose and samples taken 15, 30, 60 and 120 min for glucose determinations. The conditions are the same as those described in legend to FIG. 2 (Cont=V).
FIG. 4: A bar graph representing the area under the glucose tolerance curves of FIG. 3.
(§1) Next, I studied the effect of chronic treatment with BW1433. For this purpose I employed 2 ml Alzet mini osmotic pumps. Each pump was loaded with 2 ml of a solution containing BW1433 or with vehicle (aqueous solution adjusted to pH II). The amount of BW1433 was adjusted so that the pump delivered either zero, 0.2 mg or 0.4 mg/Kg/hour to each animal. On the first day the animals had the pumps implanted and were given a priming (2 mg/Kg or 4 mg/Kg) dose of the antagonist. Blood was taken prior to surgery and six hours after the animals were removed from their food supply. On each subsequent day animals had free access to food and water overnight, then their food removed for six hours, and a blood sample taken.
(§2) In addition to taking blood samples for glycerol analysis, each animal was weighed every day for seven days. After seven days the animals were fasted overnight and a glucose tolerance test given The animals were then sacrificed and 1 ml blood sample taken for serum insulin and serum BW1433 determination drug levels. Insulin levels were measured with RIA kit (Diagnostic Products) and BW1433 levels were measured fluorometrically after HPLC separation at Burroughs Wellcome, Research Triangle Park, North Carolina. […] Nonetheless, when glucose tolerance curves were administered on day 7, drug-related differences could still be seen in all animals studied. […] This is illustrated more clearly in FIG. 4 where the area under the glucose tolerance curve is shown as a bar for each of the 6 groups of animals. […] FIG. 5 is a chart of the change in weight of treated and untreated lean and obese animals. […] The effect on weight change in each case was maximal at day 3, the day when the glycerol values peaked. […]

[2] = tested on: lean and obese (fatty) Zucker rats; experiment: Serum insulin after chronic administration of BW1433 (RIA kit); type: in vivo
Method: as §1
(§3) In addition to taking blood samples for glycerol analysis, each animal was weighed every day for seven days. After seven days the animals were fasted overnight and a glucose tolerance test given The animals were then sacrificed and 1 ml blood sample taken for serum insulin and serum BW1433 determination drug levels. Insulin levels were measured with RIA kit (Diagnostic Products) and BW1433 levels were measured fluorometrically after HPLC separation at Burroughs Wellcome, Research Triangle Park, North Carolina. […] Nonetheless, when glucose tolerance curves were administered on day 7, drug-related differences could still be seen in all animals studied. […] This is illustrated more clearly in FIG. 4 where the area under the glucose tolerance curve is shown as a bar for each of the 6 groups of animals. […] FIG. 5 is a chart of the change in weight of treated and untreated lean and obese animals. […] The effect on weight change in each case was maximal at day 3, the day when the glycerol values peaked. Based on these remarkable results, the compounds of Formula I can be administered to obese warm-blooded animals as anti-obesity agents, or administered to farm animals to advantageously increase the ratio of muscle mass to fat therein.
The obese animals apparently have lower extracellular fluid volume per Kg body weight.

[3] = Body weights during chronic administration of BW1433; type: in vivo, Zucker rats
Method: FIG. 5: Body weights of lean and obese Zucker rats during chronic administration of BW1433. The data are presented as a % of day 0 weight. Day 0 represents when the Alzet mini-pumps were implanted. The conditions are the same as those described in the legend to FIG. 2.
as §1, §2

[4] = tested on: lean and obese Zucker rats; experiment: Daily serum glycerol during chronic administration of BW1433 (Alzet mini osmotic pumps); type: in vivo
Method: FIG. 2: Daily serum glycerol levels during chronic administration of BW1433 in lean (L) and obese (F) Zucker rats. In the no drug group (V) n=5, in the D1 group (0.2 mg/Kg/hr) n=5, and in the D2 group (0.4 mg/Kg/hr) n=4.
as §1, §3

[5] = cited from earlier work
Al adenosine receptor [6] = experiment: Blockade by BW1433 of receptors activated with the agonist N-6 phenylisopropyladenosine (PIA), subcutaneous; type: in vivo, rat (Sprague Dawley, lean Zucker, obese Zucker); conditions: all three strains of rat
Method: Next, I studied the effect of subcutaneous injections of BW1433 in 18 hour fasted animals. The results, shown in FIG. 1, support my initial postulation, that the Al adenosine receptor may be particularly active in obese animals. […] To distinguish between these possibilities, the agonist N-6 phenylisopropyladenosine (PIA) was injected subcutaneously either alone or in combination with BW1433.

Al adenosine receptor [7] = experiment: Acute subcutaneous injection of BW1433, serum glycerol (whole body lipolysis); type: in vivo, Sprague Dawley rats; lean and obese Zucker rats; conditions: Sprague Dawley rats, 18 hour fasted, 60 min after subcutaneous injection, 0-10 mg/Kg
Method: FIG. 1: Serum glycerol levels 60 min after a subcutaneous injection of BW1433 (0-10 mg/Kg) in Sprague Dawley rats (SD) and lean and obese Zucker rats. Each point represents 3-4 animals in the case of SD rats and 3-10 or 4-10 in the case of lean and obese Zuckers, respectively.
My initial studies were carried out following acute subcutaneous injections of the drug into male Sprague Dawley rats and into lean and into obese Zucker rats. Blood samples (100 microliter) were taken from the tail of the rats and measurements made of serum glycerol^6. Glycerol is an end product of lipolysis and thus an excellent indicator of the rate of whole body lipolysis. […] I discovered that in the absence of the Formula I compound tested, serum glycerol levels only differ slightly when comparing lean and obese animals. Since there is 3-4 times more fat in the obese animal this is good evidence for sluggish lipolysis per g of fat in the obese. The obese animals however seem to mobilize the fat at an earlier time after removal of their food supply (Table 1), since after 6 hours of fasting the obese serum glycerol levels are much higher than the lean.
Next, I studied the effect of subcutaneous injections of BW1433 in 18 hour fasted animals. The results, shown in FIG. 1, support my initial postulation, that the Al adenosine receptor may be particularly active in obese animals. […]

[8] = Serum BW1433 level after chronic administration (fluorometric after HPLC separation); type: in vivo, Zucker rats; conditions: for concentration at 168 h: rat, serum, day 7
Method: as §3, with “Next, I studied the effect of chronic treatment with BW1433. For this purpose I employed 2 ml Alzet mini osmotic pumps. Each pump was loaded with 2 ml of a solution containing BW1433 or with vehicle (aqueous solution adjusted to pH II). The amount of BW1433 was adjusted so that the pump delivered either zero, 0.2 mg or 0.4 mg/Kg/hour to each animal. On the first day the animals had the pumps implanted and were given a priming (2 mg/Kg or 4 mg/Kg) dose of the antagonist. Blood was taken prior to surgery and six hours after the animals were removed from their food supply. On each subsequent day animals had free access to food and water overnight, then their food removed for six hours, and a blood sample taken. In addition” for “In addition”, “fat therein. […] The obese animals apparently have lower extracellular fluid volume per Kg body weight.” for “fat therein.”

## CCCn1c(=O)c2nc(-c3ccc(/C=C/C(=O)O)cc3)[nH]c2n(CCC)c1=O [BW1433, (E)-4-(1,2,3,6-tetrahydro-2,6-dioxo-1,3-dipropyl-9H-purin-8-yl)cinnamic acid]
[1]; day 7, 1.25 g/Kg glucose
  glucose tolerance: improved glucose tolerance
[1]; lean and obese (fatty) animals, FIG. 4
  area under the glucose tolerance curves: does reduce the area under these curves
[1]; lean and obese Zucker rats, 1.25 g/Kg glucose intraperitoneal, day 7, dose dependence
  area under the glucose tolerance curve: smaller, the larger the dose
[2]; Fatty, +BW1433, 0.2 mg/kg (vehicle 54.06 ± 9.49)
  serum insulin: 52.81 ± 4.82 micro lu/ml
[2]; Fatty, +BW1433, 0.4 mg/kg (vehicle 54.06 ± 9.49)
  serum insulin: 58.06 ± 6.52 micro lu/ml
[2]; Lean, +BW1433, 0.2 mg/kg (vehicle 7.92 ± 0.92)
  serum insulin: 11.63 ± 1.62 micro lu/ml
[2]; Lean, +BW1433, 0.4 mg/kg (vehicle 7.92 ± 0.92)
  serum insulin: 10.67 ± 1.50 micro lu/ml
[3]; lean Zucker rats
  growth or weight gain: increased growth or weight gain
[3]; lean and obese
  day of maximal effect on weight change: 3 days
[3]; obese Zucker rats
  growth or weight gain: decreased growth or weight gain
[4]; chronic
  day when the glycerol values peaked: 3 days
[4]; day 7, chronic
  serum levels on day 7 (adaptation to the drug): all serum levels were similar on day 7
[4]; lean Zucker rats, chronic 0.2 or 0.4 mg/Kg/hour
  effect on serum glycerol level: did not effect the glycerol level
[4]; obese Zucker rats, chronic
  serum glycerol level, higher dose (0.4 mg/Kg) versus lower dose (0.2 mg/Kg): higher in the group with the higher dose of drug
[4]; obese Zucker rats, chronic 0.2 or 0.4 mg/Kg/hour
  serum glycerol level versus controls: much higher levels of glycerol than the controls
[5]
  oral administration and absorption: can be administered and absorbed orally
Al adenosine receptor [6]
  dose at which receptors could be effectively blocked: 1 to 2 mg/kg
Al adenosine receptor [7]
  effect on serum glycerol: little or no effect
[8]; obese compared with lean Zucker rats
  serum drug level, obese versus lean: somewhat higher levels of drug than the lean
[8]; 0.2 mg/kg/h, Fatty, +BW1433, 0.2 mg/kg (pump, per hour)
  concentration at 168 h: 205 ± 22 ng/mL
[8]; 0.2 mg/kg/h, Lean, +BW1433, 0.2 mg/kg (pump, per hour)
  concentration at 168 h: 102 ± 20 ng/mL
[8]; 0.4 mg/kg/h, Fatty, +BW1433, 0.4 mg/kg (pump, per hour)
  concentration at 168 h: 624 ± 80 ng/mL
[8]; 0.4 mg/kg/h, Lean, +BW1433, 0.4 mg/kg (pump, per hour)
  concentration at 168 h: 366 ± 98 ng/mL
